Assay results reported in patent US10710978B2, “STK4 inhibitors for treatment of hematologic malignancies” (Dana-Farber Cancer Institute, Inc., priority 2015, dated 2020).
Where two headings read alike, the source gives them in different places.

Columns and labels:
p-MOB1 = experiment: Western blotting; type: cell-based; details: MM.1S cells, 1 μM and 10 μM, 6 hours
Source text: MM.1S, KMS20 and H929 cells are counted, diluted and plated. Cells are then […] with DMSO or different concentration of a compound of the present application for 6 hrs, 24 hrs or 48 hrs. MM cells are then collected and centrifuged at RT and the pellets are re-suspended in lysis buffer. Cell lysates are subjected to sodium dodecyl sulfate-polyacrylamide gel electrophoresis SDS-PAGE, transferred to nitrocellulose membranes, and immunoblotted with different antibodies.
MM.1S, KMS20 and H929 cells were counted, diluted and plated in six-well plates to a final concentration of 500,000 cells/well. Cells were then […] with DMSO or different concentration of a compound of the present application for 6 hrs, 24 hrs or 48 hrs. MM cells were then collected and centrifuged for 5 min, 1300 rpm at RT. The pellets were re-suspended in lysis buffer Laemli 1× (Laemli 5×: SDS 10%, DTT 500 mM, Tris-HCl pH6.8 0.4M, BromoFenol Blue, Glycerol 50%). Cell lysates were subjected to sodium dodecyl sulfate-polyacrylamide gel electrophoresis SDS-PAGE, transferred to nitrocellulose membranes, and immunoblotted with different antibodies: YAP1 (#4912), p-YAP1 (S127) (#13008), LATS1 (#9153), p-LATS1 (Thr1079) (#8654), MOB1 (#3863), p-MOB1 (Thr12) (#8843), p-MST1/p-MST2 (Thr183/Thr180) (#3681), p21 (#2947), PARP (#9532), ERK, STAT, and GAPDH (#5174) from Cell Signaling, Beverly, Mass., United States; STK4 (ab57836) (from Abcam, Cambridge, Mass., United States); PUMA (sc-28226), BAX (sc-20067), from Santa Cruz, Dallas, Tex., United States; β-actin from Sigma-Aldrich (St. Louis, Mo., United States). All antibodies were diluted 1:500, except for β-actin antibody (1:50,000 dilution). In FIG. 8, H929 cells were treated with Compound I-9 or DMSO at 1 μM concentration for 24 hours. Lysates were then obtained and immunoblot was performed using antibodies against PARP, YAP1, PUMA, BAX. p21, and GAPDH.
In FIGS. 26A-26J, MM.1S cells were treated with Compound I-6, Compound I-31, Compound I-30, Compound I-22, Compound I-27, Compound I-1, Compound I-23, Compound I-13, Compound I-28, Compound I-9, or DMSO at 1 μM and 10 μM concentrations for 6 hours. Lysates were then obtained and immunoblot was performed using antibodies against MOB1 and p-MOB1. As shown from FIGS. 26A-26J, Compound I-22, Compound I-27, Compound I-1, Compound I-23, Compound I-13, Compound I-28, and Compound I-9 reduced PMOB1 levels at different concentrations.

CK1g1 = CK1g1 (Homo sapiens (Human), UniProt Q9HCP0); experiment: KiNativ assay; type: binding; details: H929 live cell
Sequence of CK1g1 (Q9HCP0 whole entry): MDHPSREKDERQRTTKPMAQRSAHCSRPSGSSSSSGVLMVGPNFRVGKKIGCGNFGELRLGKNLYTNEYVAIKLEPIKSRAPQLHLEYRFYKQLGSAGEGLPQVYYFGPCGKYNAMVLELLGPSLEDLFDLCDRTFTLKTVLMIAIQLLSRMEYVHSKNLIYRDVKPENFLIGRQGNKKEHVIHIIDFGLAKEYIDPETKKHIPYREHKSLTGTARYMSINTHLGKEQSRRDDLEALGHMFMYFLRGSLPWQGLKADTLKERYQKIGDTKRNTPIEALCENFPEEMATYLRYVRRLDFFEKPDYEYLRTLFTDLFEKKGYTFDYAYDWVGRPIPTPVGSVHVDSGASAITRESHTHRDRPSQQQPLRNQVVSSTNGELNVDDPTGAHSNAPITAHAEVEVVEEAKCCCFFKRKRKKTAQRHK
How it was run: (§1)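 IC50 values came from MS analysis in a KiNativ format, following compound exposure of live H929 cells at 10 μM, tested twice.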

ARAF = ARAF (Homo sapiens (Human), UniProt P10398); experiment: KiNativ assay; type: binding; details: H929 live cell
Sequence of ARAF (P10398 whole entry): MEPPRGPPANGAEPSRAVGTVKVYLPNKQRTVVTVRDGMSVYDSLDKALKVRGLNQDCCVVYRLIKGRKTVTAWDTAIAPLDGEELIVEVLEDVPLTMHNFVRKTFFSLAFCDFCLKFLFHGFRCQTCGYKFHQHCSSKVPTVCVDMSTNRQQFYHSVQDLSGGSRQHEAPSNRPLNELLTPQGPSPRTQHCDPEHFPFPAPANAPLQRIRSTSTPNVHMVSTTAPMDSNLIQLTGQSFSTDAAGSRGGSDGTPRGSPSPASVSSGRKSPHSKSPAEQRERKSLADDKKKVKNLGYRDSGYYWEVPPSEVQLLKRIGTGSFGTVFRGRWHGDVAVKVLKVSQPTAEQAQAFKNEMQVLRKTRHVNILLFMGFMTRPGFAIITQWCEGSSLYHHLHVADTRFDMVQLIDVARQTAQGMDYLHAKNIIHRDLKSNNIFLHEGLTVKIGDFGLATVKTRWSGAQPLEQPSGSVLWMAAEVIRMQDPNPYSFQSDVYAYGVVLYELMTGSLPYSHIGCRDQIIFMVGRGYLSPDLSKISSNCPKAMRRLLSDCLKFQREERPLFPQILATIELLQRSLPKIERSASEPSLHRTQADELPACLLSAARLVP
How it was run: (§2)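 KiNativ profiling in live H929 cells; single concentration 10 μM, n=2; IC50 from MS measurement.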

KHS2 = KHS2 (Homo sapiens (Human), UniProt Q8IVH8); experiment: KiNativ assay; type: binding; details: H929 live cell
How it was run: as §1

CK1d, CK1e = experiment: KiNativ assay; type: binding; details: H929 live cell
How it was run: as §1

DNAPK = DNAPK (Homo sapiens (Human), UniProt P78527); experiment: KiNativ assay; type: binding; details: H929 live cell; for % inhibition (range): 10 μM
Sequence of DNAPK (P78527 whole entry): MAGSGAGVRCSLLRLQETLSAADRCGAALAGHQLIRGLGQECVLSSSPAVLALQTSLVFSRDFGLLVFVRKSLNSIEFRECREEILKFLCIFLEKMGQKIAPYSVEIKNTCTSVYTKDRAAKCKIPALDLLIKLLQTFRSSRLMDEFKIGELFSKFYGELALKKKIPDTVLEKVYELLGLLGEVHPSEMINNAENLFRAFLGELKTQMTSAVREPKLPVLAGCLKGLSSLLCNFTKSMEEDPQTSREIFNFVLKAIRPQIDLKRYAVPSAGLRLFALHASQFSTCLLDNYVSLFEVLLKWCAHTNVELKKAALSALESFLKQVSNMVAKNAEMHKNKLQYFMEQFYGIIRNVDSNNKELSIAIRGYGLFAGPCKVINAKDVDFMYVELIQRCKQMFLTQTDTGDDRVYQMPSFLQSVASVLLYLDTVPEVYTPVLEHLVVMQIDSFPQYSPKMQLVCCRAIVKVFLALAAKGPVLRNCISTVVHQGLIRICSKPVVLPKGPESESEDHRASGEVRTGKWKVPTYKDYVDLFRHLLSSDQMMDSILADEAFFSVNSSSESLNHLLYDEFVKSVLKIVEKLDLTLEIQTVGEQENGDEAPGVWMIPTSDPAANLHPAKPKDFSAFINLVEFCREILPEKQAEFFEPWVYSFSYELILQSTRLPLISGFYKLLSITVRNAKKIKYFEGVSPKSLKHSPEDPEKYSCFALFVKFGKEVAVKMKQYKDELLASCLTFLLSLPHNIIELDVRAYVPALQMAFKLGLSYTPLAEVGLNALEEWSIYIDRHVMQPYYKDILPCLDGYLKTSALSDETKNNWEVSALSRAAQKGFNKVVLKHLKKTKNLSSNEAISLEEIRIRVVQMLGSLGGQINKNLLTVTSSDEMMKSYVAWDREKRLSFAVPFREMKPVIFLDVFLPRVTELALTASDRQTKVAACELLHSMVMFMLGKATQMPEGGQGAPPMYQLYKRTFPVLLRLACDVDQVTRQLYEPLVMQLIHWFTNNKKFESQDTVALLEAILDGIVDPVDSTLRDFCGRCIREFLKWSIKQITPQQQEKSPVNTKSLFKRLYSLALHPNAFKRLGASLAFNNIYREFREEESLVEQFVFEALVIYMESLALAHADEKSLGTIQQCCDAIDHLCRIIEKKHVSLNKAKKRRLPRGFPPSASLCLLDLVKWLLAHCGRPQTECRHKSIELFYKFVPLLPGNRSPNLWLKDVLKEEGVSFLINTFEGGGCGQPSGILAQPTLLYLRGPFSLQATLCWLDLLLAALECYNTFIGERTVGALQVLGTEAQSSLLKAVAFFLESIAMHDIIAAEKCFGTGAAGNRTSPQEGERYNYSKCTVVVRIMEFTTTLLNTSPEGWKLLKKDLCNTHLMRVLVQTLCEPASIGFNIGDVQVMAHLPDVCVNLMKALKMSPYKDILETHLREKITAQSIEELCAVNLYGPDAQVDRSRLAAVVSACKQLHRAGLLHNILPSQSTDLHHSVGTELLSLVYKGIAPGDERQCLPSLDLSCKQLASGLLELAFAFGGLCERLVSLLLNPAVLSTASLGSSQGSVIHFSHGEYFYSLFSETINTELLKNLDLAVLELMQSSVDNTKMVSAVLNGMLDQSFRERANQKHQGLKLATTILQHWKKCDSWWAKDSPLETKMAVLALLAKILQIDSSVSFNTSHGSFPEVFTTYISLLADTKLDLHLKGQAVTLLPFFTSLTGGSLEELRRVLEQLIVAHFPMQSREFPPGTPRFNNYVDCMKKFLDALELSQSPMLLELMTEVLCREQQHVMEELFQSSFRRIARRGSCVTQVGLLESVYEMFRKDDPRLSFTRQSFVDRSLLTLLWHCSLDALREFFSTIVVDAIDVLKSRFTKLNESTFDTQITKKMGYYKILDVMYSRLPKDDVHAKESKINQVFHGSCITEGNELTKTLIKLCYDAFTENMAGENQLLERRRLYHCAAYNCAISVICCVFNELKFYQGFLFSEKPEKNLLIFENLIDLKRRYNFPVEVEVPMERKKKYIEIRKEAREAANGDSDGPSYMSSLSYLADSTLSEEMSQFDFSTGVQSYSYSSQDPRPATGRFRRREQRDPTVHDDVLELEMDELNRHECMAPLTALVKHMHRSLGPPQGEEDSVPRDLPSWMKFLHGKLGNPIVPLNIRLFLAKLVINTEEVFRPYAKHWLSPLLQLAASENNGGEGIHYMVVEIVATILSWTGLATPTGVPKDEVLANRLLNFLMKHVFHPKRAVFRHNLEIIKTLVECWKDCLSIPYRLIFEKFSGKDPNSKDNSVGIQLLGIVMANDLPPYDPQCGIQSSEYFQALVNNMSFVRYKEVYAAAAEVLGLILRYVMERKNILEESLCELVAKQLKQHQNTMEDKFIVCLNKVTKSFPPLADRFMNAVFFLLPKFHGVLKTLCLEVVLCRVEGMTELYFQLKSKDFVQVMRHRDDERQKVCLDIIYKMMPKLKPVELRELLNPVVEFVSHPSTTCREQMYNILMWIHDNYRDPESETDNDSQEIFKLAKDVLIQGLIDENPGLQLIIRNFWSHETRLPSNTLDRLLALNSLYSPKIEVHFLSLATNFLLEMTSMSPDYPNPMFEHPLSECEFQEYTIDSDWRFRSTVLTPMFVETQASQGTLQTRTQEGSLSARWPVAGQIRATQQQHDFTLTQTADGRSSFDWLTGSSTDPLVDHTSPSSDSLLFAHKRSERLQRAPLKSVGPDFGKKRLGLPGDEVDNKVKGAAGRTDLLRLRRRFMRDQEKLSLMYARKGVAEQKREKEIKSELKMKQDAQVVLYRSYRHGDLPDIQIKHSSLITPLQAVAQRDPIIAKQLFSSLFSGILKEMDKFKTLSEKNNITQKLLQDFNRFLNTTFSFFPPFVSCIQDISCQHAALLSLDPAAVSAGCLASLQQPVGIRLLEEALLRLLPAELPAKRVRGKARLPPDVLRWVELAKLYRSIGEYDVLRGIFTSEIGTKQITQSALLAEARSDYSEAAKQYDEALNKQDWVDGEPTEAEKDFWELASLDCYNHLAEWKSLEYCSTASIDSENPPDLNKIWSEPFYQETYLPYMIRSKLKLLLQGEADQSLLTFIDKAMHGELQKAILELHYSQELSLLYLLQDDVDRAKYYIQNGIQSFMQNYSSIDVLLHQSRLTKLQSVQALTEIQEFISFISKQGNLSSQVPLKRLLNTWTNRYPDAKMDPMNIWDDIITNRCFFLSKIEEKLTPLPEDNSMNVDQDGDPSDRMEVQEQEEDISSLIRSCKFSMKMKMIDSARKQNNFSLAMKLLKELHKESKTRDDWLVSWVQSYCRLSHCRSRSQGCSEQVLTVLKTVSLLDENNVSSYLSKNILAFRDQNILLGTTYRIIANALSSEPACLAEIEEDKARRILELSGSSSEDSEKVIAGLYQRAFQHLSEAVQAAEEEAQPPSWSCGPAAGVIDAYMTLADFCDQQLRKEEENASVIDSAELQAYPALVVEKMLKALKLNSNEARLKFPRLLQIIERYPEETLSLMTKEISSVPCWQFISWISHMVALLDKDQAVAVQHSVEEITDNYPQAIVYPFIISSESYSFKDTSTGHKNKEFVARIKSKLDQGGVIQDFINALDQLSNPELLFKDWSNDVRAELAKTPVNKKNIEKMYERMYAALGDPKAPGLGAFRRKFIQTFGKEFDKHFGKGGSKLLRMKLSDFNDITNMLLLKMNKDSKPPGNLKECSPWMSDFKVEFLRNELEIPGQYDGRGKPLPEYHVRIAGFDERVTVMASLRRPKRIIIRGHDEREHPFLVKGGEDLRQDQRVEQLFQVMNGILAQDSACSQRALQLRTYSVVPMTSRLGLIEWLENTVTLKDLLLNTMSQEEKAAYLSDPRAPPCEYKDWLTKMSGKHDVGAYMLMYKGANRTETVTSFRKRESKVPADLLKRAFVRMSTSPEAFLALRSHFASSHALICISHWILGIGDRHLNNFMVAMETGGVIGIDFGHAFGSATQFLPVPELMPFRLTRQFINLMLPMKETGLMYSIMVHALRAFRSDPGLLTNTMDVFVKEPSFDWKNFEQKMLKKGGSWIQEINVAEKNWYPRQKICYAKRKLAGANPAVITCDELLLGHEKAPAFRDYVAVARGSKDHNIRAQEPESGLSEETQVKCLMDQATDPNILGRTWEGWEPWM
Method: Biochemical IC50s of the compounds of the present disclosure against various kinases were measured in a KiNativ assay. Compounds were screened in duplicate at 10 μM in H929 live cell. IC50 was measured via Mass spectroscopy (MS).

QSK = QSK (Homo sapiens (Human), UniProt Q9Y2K2); experiment: KiNativ assay; type: binding; details: H929 live cell
How it was run: as §2

Structure (SMILES)	PMOB1 levels (p-MOB1)	inhibition at 10 µM (CK1g1; read-out: % inhibition (range)) [%]	inhibition at 10 µM (CK1g1; read-out: inhibition (10 μM)) [%]	inhibition at 10 µM (ARAF; read-out: % inhibition (range)) [%]	inhibition at 10 µM (ARAF; read-out: inhibition (10 μM)) [%]	inhibition at 10 µM (KHS2; read-out: % inhibition (range)) [%]	inhibition at 10 µM (KHS2; read-out: inhibition (10 μM)) [%]	% inhibition (range) (CK1d, CK1e; 10 μM) [%]	inhibition (10 μM) (CK1d, CK1e) [%]	% inhibition (range) (DNAPK)	inhibition (10 μM) (DNAPK) [%]	inhibition at 10 µM (DNAPK; read-out: % inhibition (range)) [%]	inhibition at 10 µM (DNAPK; read-out: inhibition (10 μM)) [%]	inhibition at 10 µM (QSK; read-out: % inhibition (range)) [%]	inhibition at 10 µM (QSK; read-out: inhibition (10 μM)) [%]
Nc1ncc(-c2cc([N+](=O)[O-])ccc2F)cc1-c1ccc2c(c1)CCNC2=O [Compound I-1, 6-(2-amino-5-(2-fluoro-5-nitrophenyl)pyridin-3-yl)-3,4-dihydroisoquinolin-1(2H)-one]	reduced	–	–	–	–	–	–	–	–	–	–	–	–	–	–
Nc1ncc(-c2cccc([N+](=O)[O-])c2F)cc1-c1ccc2c(c1)CCNC2=O [Compound I-9, 6-(2-amino-5-(2-fluoro-3-nitrophenyl)pyridin-3-yl)-3,4-dihydroisoquinolin-1(2H)-one]	reduced	75 to 90	> 85	0	9.5	50 to 75	69.5	>90	>95	>90%	94.0	75 to 90	79.4	50 to 75	72.8
Nc1ncc(-c2cccc3ncsc23)cc1-c1ccc2c(c1)CCNC2=O [Compound I-13, 6-(2-amino-5-(benzo[d]thiazol-7-yl)pyridin-3-yl)-3,4-dihydroisoquinolin-1(2H)-one]	reduced	75 to 90	> 85	0	16.7	0	1.7	–	58.9	50-75%	59.4	35 to 50	44.7	35 to 50	47.8
